Laboratory results from PubChem BioAssay (NCI).
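Cells were grown in 96-well plates and exposed to each compound for 48 hours at five concentrations; endpoints were interpolated linearly between bracketing concentrations, or set to the highest concentration if not reached. Abbreviation: GI50, concentration required for 50% inhibition of growth. TGI: concentration producing complete growth inhibition.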

Legend:
Experiment in all cases: inhibition of tumour cell growth, NCI panel, 48 h
[1] = test system: SK-OV-3 ovarian
[2] = test system: BT-549 breast
[3] = test system: OVCAR-3 ovarian
[4] = test system: 786-0 renal
[5] = test system: KM12 colon
[6] = test system: MALME-3M melanoma
[7] = test system: U251 CNS
[8] = test system: TK-10 renal
[9] = test system: HCT-15 colon
[10] = test system: CAKI-1 renal
[11] = test system: HCT-116 colon
[12] = test system: NCI-H226 lung
[13] = test system: M14 melanoma
[14] = test system: RPMI-8226 leukemia
[15] = test system: SF-268 CNS
[16] = test system: SNB-19 CNS
[17] = test system: COLO 205 colon
[18] = test system: HL-60(TB) leukemia
[19] = test system: A498 renal
[20] = test system: IGROV1 ovarian
[21] = test system: PC-3 prostate
[22] = test system: SF-295 CNS
[23] = test system: CCRF-CEM leukemia
[24] = test system: A549 NSCLC
[25] = test system: SK-MEL-28 melanoma
[26] = test system: ACHN renal
[27] = test system: NCI/ADR-RES ovarian
[28] = test system: HT29 colon
[29] = test system: EKVX NSCLC
[30] = test system: MDA-MB-231 breast
[31] = test system: SK-MEL-2 melanoma
[32] = test system: HOP-62 NSCLC
[33] = test system: UACC-257 melanoma
[34] = test system: SK-MEL-5 melanoma
[35] = test system: NCI-H23 lung
[36] = test system: DU-145 prostate
[37] = test system: MOLT-4 leukemia
[38] = test system: SNB-75 CNS
[39] = test system: UO-31 renal
[40] = test system: T-47D breast
[41] = test system: UACC-62 melanoma
[42] = test system: RXF 393 renal
[43] = test system: HS 578T breast
[44] = test system: SN12C renal
[45] = test system: HOP-92 NSCLC
[46] = test system: NCI-H522 lung
[47] = test system: OVCAR-4 ovarian
[48] = test system: NCI-H460 lung
[49] = test system: SW-620 colon
[50] = test system: OVCAR-8 ovarian
[51] = test system: HCC-2998 colon
[52] = test system: MDA-MB-435
[53] = test system: LOX IMVI melanoma
[54] = test system: SF-539 CNS
[55] = test system: OVCAR-5 ovarian
[56] = test system: K-562 leukemia
[57] = test system: SR leukemia

C=C1C(=O)O[C@H]2[C@H]1CC/C(CNC(=O)c1cccc3ccccc13)=C\CC[C@@]1(C)O[C@@H]21
GI50 [1]: 17.1 µM | TGI [1]: 33.1 µM | GI50 [2]: 1580 nM | TGI [2]: 3.87 µM | GI50 [3]: 1310 nM | TGI [3]: 2770 nM | GI50 [4]: 1640 nM | TGI [4]: 3.41 µM | GI50 [5]: 5.25 µM | TGI [5]: 21 µM | GI50 [6]: 1410 nM | TGI [6]: 3.23 µM | GI50 [7]: 5.2 µM | TGI [7]: 18.2 µM | GI50 [8]: 1980 nM | TGI [8]: 4.46 µM | GI50 [9]: 1310 nM | TGI [9]: 3.14 µM | GI50 [10]: 1190 nM | TGI [10]: 4.74 µM | GI50 [11]: 1030 nM | TGI [11]: 2320 nM | GI50 [12]: 29.1 µM | TGI [12]: 77.6 µM | GI50 [13]: 1570 nM | TGI [13]: 3.76 µM | GI50 [14]: 2020 nM | TGI [14]: 6.4 µM | GI50 [15]: 5.22 µM | TGI [15]: 20 µM | GI50 [16]: 5.96 µM | TGI [16]: 20 µM | GI50 [17]: 1750 nM | TGI [17]: 3.53 µM | GI50 [18]: 1340 nM | TGI [18]: 4.38 µM | GI50 [19]: 5.93 µM | TGI [19]: 19.2 µM | GI50 [20]: 1330 nM | TGI [20]: 3.86 µM | GI50 [21]: 1790 nM | TGI [21]: 4 µM | GI50 [22]: 6.15 µM | TGI [22]: 21.6 µM | GI50 [23]: 424 nM | TGI [23]: 6.03 µM | GI50 [24]: 14.1 µM | TGI [24]: 35.3 µM | GI50 [25]: 2780 nM | TGI [25]: 10.7 µM | GI50 [26]: 1520 nM | TGI [26]: 6.3 µM | GI50 [27]: 4.52 µM | TGI [27]: 46.9 µM | GI50 [28]: 1840 nM | TGI [28]: 4.75 µM | GI50 [29]: 2200 nM | TGI [29]: 8.79 µM | GI50 [30]: 1590 nM | TGI [30]: 4 µM | GI50 [31]: 6.51 µM | TGI [31]: 24.2 µM | GI50 [32]: 14.1 µM | TGI [32]: 30.7 µM | GI50 [33]: 1590 nM | TGI [33]: 3.61 µM | GI50 [34]: 3000 nM | TGI [34]: 11.5 µM | GI50 [35]: 3.67 µM | TGI [35]: 19.1 µM | GI50 [36]: 1020 nM | TGI [36]: 2470 nM | GI50 [37]: 1700 nM | TGI [37]: 5.62 µM | GI50 [38]: 11.9 µM | TGI [38]: 27.1 µM | GI50 [39]: 1440 nM | TGI [39]: 2.94 µM | GI50 [40]: 2550 nM | TGI [40]: 9.08 µM | GI50 [41]: 1640 nM | TGI [41]: 3.9 µM | GI50 [42]: 1180 nM | TGI [42]: 2.6 µM | GI50 [43]: 6.22 µM | TGI [43]: 44.4 µM | GI50 [44]: 1960 nM | TGI [44]: 5.91 µM | GI50 [45]: 1830 nM | TGI [45]: 4.44 µM | GI50 [46]: 1360 nM | TGI [46]: 2950 nM | GI50 [47]: 2340 nM | TGI [47]: 8 µM | GI50 [48]: 7.23 µM | TGI [48]: 25.2 µM | GI50 [49]: 1120 nM | TGI [49]: 3.04 µM | GI50 [50]: 3.29 µM | TGI [50]: 12 µM | GI50 [51]: 2430 nM | TGI [51]: 5.2 µM | GI50 [52]: 1990 nM | TGI [52]: 6.56 µM | GI50 [53]: 1530 nM | TGI [53]: 3.19 µM | GI50 [54]: 1850 nM | TGI [54]: 5.11 µM | GI50 [55]: 3.6 µM | TGI [55]: 14 µM

COC(=O)[C@](NC(=O)OCc1ccccc1)([C@@H](C)S(=O)c1ccc(C)cc1)C(F)(F)F (stereo not given in full)
TGI [1]: > 100 µM | TGI [2]: 88.8 µM | TGI [3]: > 100000 nM | TGI [4]: > 100 µM | TGI [5]: > 100 µM | TGI [6]: > 100 µM | TGI [7]: > 100 µM | TGI [8]: 70 µM | TGI [9]: > 100 µM | TGI [10]: > 100 µM | TGI [11]: > 100000 nM | TGI [12]: > 100 µM | TGI [13]: > 100 µM | TGI [14]: > 100 µM | TGI [15]: > 100 µM | TGI [16]: > 100 µM | TGI [17]: 64.7 µM | TGI [18]: 38.9 µM | TGI [19]: 95.8 µM | TGI [56]: > 100 µM | TGI [20]: > 100 µM | TGI [21]: > 100 µM | TGI [22]: > 100 µM | TGI [23]: 92 µM | TGI [24]: > 100 µM | TGI [25]: > 100 µM | TGI [26]: > 100 µM | TGI [27]: > 100 µM | TGI [28]: 67 µM | TGI [29]: > 100 µM | TGI [30]: > 100 µM | TGI [31]: 48.9 µM | TGI [32]: > 100 µM | TGI [33]: 86.6 µM | TGI [34]: 33.1 µM | TGI [35]: 95.1 µM | TGI [36]: > 100000 nM | TGI [37]: 70 µM | TGI [38]: > 100 µM | TGI [57]: 61.5 µM | TGI [39]: 95.9 µM | TGI [40]: > 100 µM | TGI [41]: > 100 µM | TGI [42]: 65.8 µM | TGI [43]: > 100 µM | TGI [45]: 96.4 µM | TGI [46]: > 100000 nM | TGI [47]: 89.2 µM | TGI [48]: > 100 µM | TGI [49]: > 100 µM | TGI [50]: > 100 µM | TGI [51]: > 100 µM | TGI [52]: > 100 µM | TGI [53]: > 100 µM | TGI [55]: > 100 µM
